The results in this text go back to patent publication US11319283B2, “Substituted cyclobutylbenzene compounds as indoleamine 2,3-dioxygenase (IDO) inhibitors” (MERCK SHARP & DOHME CORP., priority 2017, dated 2022).

The structures appear in SMILES notation. pIC50: −log10 of the molar value.

What all share (assay type): cell-based
The target in one test is T1, TDO (Homo sapiens, UniProt P48775).
T1 construct: endogenous in cells; host or cells: SW48 cells (A2780 cells as control with minimal TDO activity)
T1 sequence (P48775 whole entry): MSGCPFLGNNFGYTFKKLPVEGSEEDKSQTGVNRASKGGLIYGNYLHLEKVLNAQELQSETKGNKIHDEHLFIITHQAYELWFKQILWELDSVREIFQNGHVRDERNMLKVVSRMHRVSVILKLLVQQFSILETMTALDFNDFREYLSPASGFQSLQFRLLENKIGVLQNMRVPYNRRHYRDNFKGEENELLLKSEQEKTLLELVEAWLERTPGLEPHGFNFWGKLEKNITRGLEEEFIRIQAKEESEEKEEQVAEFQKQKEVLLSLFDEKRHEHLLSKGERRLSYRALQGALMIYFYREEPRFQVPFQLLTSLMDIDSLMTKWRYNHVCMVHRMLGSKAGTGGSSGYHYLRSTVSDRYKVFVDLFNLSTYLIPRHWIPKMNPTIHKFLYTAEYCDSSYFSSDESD
In words: TDO Cellular Assay in Frozen SW48 Cells. As to conditions: 300 uM L-tryptophan, about 48 hours, fluorescence readout. The method, then:
TDO Cellular Assay in Frozen SW48 Cells
SW48 cells were cultured in complete RPMI culture medium (90% RPMI, 10% heat-inactivated fetal bovine serum).
Compounds to be tested were serially diluted in ten 3-fold steps in DMSO starting from 10 mM DMSO stocks in Echo low volume plate(s). […] The cells were spun down at 350 g in a table top centrifuge for 5 minutes and suspended in same volume of RPMI assay medium. […] Sterile L-tryptophan (Sigma, Cat # T0254) was added to the cells with final concentration of 300 uM.
SW48 and A2780 cells were dispensed to the respective wells of 384-well assay plates containing the compounds. The plates were incubated for about 48 hours at a 37° C., 5% CO2 incubator. Afterwards, 12 μL of 0.5 M ethyl isonipecotate (Sigma Aldrich, Cat # E33505) in dimethyl sulfoxide were added into each well and the plates were sealed and incubated at 37° C. without CO2 overnight. The plates were centrifuged for 1 minute at 200×g. The resulting fluorescence was measured in a Spectramax plate reader (Molecular Devices) with a 400 nm excitation filter and a 510 nm emission filter.
The fluorescence intensity of each well was corrected for the background observed in wells with A2780 cells and was expressed as a fraction of the intensity observed in wells of SW48 cells and DMSO only. Potencies were calculated by linear least squares fit to the four parameter logistic IC50 equation.

Test [1] has as its target T2, IDO1 (Homo sapiens, UniProt P14902). Briefly: IDO1 Human Whole Blood Assay. More on the design: from tissue; host or cells: human whole blood from healthy donors, stimulated with LPS and IFNγ. As to conditions: LPS and IFNγ 100 ng/mL, overnight (18 h), kynurenine by LC/MS/MS. Here is the method: IDO1 Human Whole Blood Assay
Compounds to be tested were serially diluted in ten 3-fold steps in DMSO starting from 10 mM. […] LPS and IFNγ was prepared in RPMI to a 10× of final conc. (1000 ng/mL), final concentration is 100 ng/mL.
Human whole blood was drawn in sodium heparin coated tubes from healthy internal donors. […] of blood was transferred to each of the wells of a v-bottom 96 well plate. […] of compound was transferred from intermediate dilution plate, and incubated for 15 min. 30 μL from stimulants was then transferred to blood and mixed thoroughly. Plate was covered with breathable membrane and incubated at 37° C. for overnight (18 h).
On day 2 isotope labeled standard of kynurenine and tryptophan was made in water at 10× concentration and […] was added to the blood at […] final concentration. The assay plates were centrifuged at 300×G for 10 min with no brake to separate plasma from red blood cells. […] of plasma samples was removed without disturbing red blood cells. Plasma was diluted with RPMI in 1:1 ratio and proteins were precipitated out with two volume of Acetonitrile. The plates was centrifuged at 4000×G for 60 min. 20 mL of supernatant was carefully transferred to a 384 well plate contain 40 mL of 0.1% formic acid in water and analyzed by LC/MS/MS.
LC/MS/MS analyses were performed using Thermo Fisher's LX4-TSQ Quantum Ultra system. This system consists of four Agilent binary high-performance liquid chromatography (HPLC) pumps and a TSQ Quantum Ultra triple quadruple MS/MS instrument. For each sample, […] were injected onto an Atlantis T3 column (2.1 mm×150 mm, […]) from Waters. The mobile phase gradient pumped at 0.8 mL/min was used to elute the analytes from the column at 25° C. […] Mobile phase A consisted of 0.1% formic acid in water. Mobile phase B consisted of 0.1% of formic acid in acetonitrile. Data was acquired in positive mode using a HESI interface. The operational parameters for the TSQ Quantum Ultra instrument were a spray voltage of 4000 V, capillary temperature of 380° C., vaporizer temperature 400° C., shealth gas 60 arbitrary units, Aux gas 20 arbitrary units, tube lens 85 and collision gas 1.2 mTorr. […] The peak area was integrated by Xcalibur Quan software. The ratios between the kynurenine generated in the reaction and 2D6-Kynurenine spiked-in internal standard were used to generate percentage inhibition and IC50 values. Compounds were titrated and IC50's were calculated by 4 parameter sigmoidal curve fitting formula.

The target of test [2] is T2, IDO1. Briefly: IDO1 Cellular Assay in Hela Cells Stimulated with IFNγ. As to conditions: Hela cells stimulated with IFNγ 100 ng/mL, 300 uM L-tryptophan, about 48 hours, fluorescence readout. More on the design: endogenous in cells; host or cells: HeLa cells stimulated with IFNγ (100 ng/mL). The method, then:
IDO1 Cellular Assay in Hela Cells Stimulated with IFNγ
Hela cells were cultured in complete Hela culture medium (90% EMEM, 10% heat-inactivated fetal bovine serum) and expanded to about 1×10^9 cells. The cells were then collected and frozen down at 1×10^7 cells/vial in 1 mL frozen medium (90% complete Hela culture medium, 10% DMSO)
Compounds to be tested were serially diluted in ten 3-fold steps in DMSO starting from 10 mM DMSO stocks in Echo low volume plate(s).
Frozen Hela cells were thawed and transferred into Hela assay medium (99% complete Hela culture medium, 1% Pen/Strep) with 20 mL medium/vial of cells. The cells were spun down at 250 g in a table top centrifuge for 5 min and suspended in same volume of Hela assay medium. The cells were then counted and adjusted to a density of 2×10^5 cells/ml in Hela assay medium. Sterile L-tryptophan were added to the cells with final concentration of 300 uM L-tryptophan. A small aliquot (2 mL/plate) of Hela cells were set aside and were not treated with IFNγ, to serve as the Max-E control.
Hela cells with and without IFNγ were dispensed to the respective wells of 384-well assay plates containing the compounds. The plates were incubated for about 48 hours at a 37° C., 5% CO2 incubator. Afterwards, […] of 0.5 M methyl isonipecotate in dimethyl sulfoxide were added into each well and the plates were sealed and incubated at 37° C. without CO2 overnight. The plates were centrifuged for 1 min at 200×g. The resulting fluorescence was measured in a Spectramax plate reader (Molecular Devices) with a 400 nm excitation filter and a 510 nm emission filter.
Potencies were calculated by linear least squares fit to the four parameter logistic IC50 equation.

T2 sequence (P14902 whole entry): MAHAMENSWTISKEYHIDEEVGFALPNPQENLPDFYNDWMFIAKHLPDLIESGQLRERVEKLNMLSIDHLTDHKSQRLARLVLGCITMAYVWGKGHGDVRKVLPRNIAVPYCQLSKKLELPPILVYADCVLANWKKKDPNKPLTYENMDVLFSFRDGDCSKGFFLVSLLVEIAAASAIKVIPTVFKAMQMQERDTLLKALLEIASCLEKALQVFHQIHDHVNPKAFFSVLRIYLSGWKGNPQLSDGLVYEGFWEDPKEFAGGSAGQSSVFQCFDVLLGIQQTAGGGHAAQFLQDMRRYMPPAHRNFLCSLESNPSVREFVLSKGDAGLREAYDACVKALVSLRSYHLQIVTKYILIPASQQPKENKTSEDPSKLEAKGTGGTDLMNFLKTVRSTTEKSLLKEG

One may read the pIC50 as the negative decadic logarithm of the IC50, by convention in mol/L. Consider `CC1CC1NC(=O)C1(c2ccc(NC(=O)c3cccc(Cl)c3)cc2)CCC1` (single isomer, unassigned) [Example 21, 3-chloro-N-(4-(1-((2-methylcyclopropyl)carbamoyl)cyclobutyl)phenyl)benzamide], for which the pIC50 against TDO was at most 5.00; at IDO1 [1], 6.10; against IDO1 [2], 8.15.
Regarding `N#Cc1ccc(C(=O)NC2(c3ccc(NC(=O)c4cccc(Cl)c4)cc3)CCC2)cc1` [Example 2, 3-Chloro-N-(4-(1-(4-cyanobenzamido)cyclobutyl)phenyl)benzamide], the results for the pIC50 on TDO, against IDO1 [1] and at IDO1 [2] were at most 5.00, 6.73 and 8.52, respectively.
Turning to `O=C(Nc1ccc(C2(NC(=O)c3ccc(Cl)nc3)CCC2)cc1)c1cccc(Cl)c1` [Example 7, 6-chloro-N-(1-{4-[(3-chlorobenzene-1-carbonyl)amino]phenyl}cyclobutyl)pyridine-3-carboxamide], the results for the pIC50 on TDO, on IDO1 [1] and on IDO1 [2] were at most 5.00, 6.46 and 8.40, respectively.
On the same counts, the results for `O=C(Nc1ccc(C2(NC(=O)c3ccc(Cl)cc3)CCC2)cc1)c1cccc(Cl)c1` [Example 19, 3-Chloro-N-(4-(1-(4-chlorobenzamido)cyclobutyl)phenyl)benzamide] are at most 5.00, 6.47 and 8.70.
On the same counts, the results for `O=C(Nc1ccc(C2(C(=O)Nc3ccc(F)cn3)CCC2)cc1)c1cccc(Cl)c1` [Example 28, 3-chloro-N-(4-{1-[(5-fluoropyridin-2-yl)carbamoyl]cyclobutyl}phenyl)benzamide] are at most 5.00, 6.60 and 8.40.
Regarding `O=C(Nc1ccc(C2(C(=O)NC3CCCCC3)CCC2)cc1)c1cccc(Cl)c1` [Example 30, 3-chloro-N-{4-[1-(cyclohexylcarbamoyl)cyclobutyl]phenyl} benzamide], the negative-log IC50 (pIC50) on TDO is at most 5.00; at IDO1 [1] it was 6.10; against IDO1 [2] it was 8.30.
For `O=C(Nc1ccc(C2(C(=O)N[C@@H]3C[C@H]3C(F)(F)F)CCC2)cc1)c1cccc(Cl)c1` [Example 32] the same measures were at most 5.00, 6.13 and 7.92.
Take `O=C(Nc1ccc(C2(C(=O)NC3CCC(F)(F)CC3)CCC2)cc1)c1cccc(Cl)c1` [Example 33, 3-chloro-N-(4-{1-[(4,4-difluorocyclohexyl)carbamoyl]cyclobutyl}phenyl) benzamide]: the values for the pIC50 on TDO, at IDO1 [1] and on IDO1 [2] were at most 5.00, 5.73 and 7.82, respectively.
Consider `Cn1ccc(NC(=O)C2(c3ccc(NC(=O)c4cccc(Cl)c4)cc3)CCC2)n1` [Example 35, 3-chloro-N-(4-{1-[(1-methyl-1H-pyrazol-3-yl)carbamoyl]cyclobutyl}phenyl)benzamide], for which the pIC50 is at most 5.00 against TDO, 5.79 at IDO1 [1] and 7.62 against IDO1 [2].
Take `O=C(Nc1ccc(C2(C(=O)Nc3ccc(F)cc3)CC(F)(F)C2)cc1)c1cccc(Cl)c1` [Example 63, 3-chloro-N-(4-(3,3-difluoro-1-((4-fluorophenyl)carbamoyl)cyclobutyl)phenyl)benzamide]: the pIC50 was at most 5.00 at TDO, 7.15 against IDO1 [1] and 8.70 on IDO1 [2].
Turning to `O=C(Nc1ccc(C2(C(=O)Nc3ccc(F)cc3)CC(F)(F)C2)cc1)c1ccnc(C(F)(F)F)c1` [Example 76, N-(4-{3,3-difluoro-1-[(4-fluorophenyl)carbamoyl]cyclobutyl}phenyl)-2-(trifluoromethyl) pyridine-4-carboxamide], the pIC50 is 5.12 at TDO and 7.70 at IDO1 [2].
On the same counts, the results for `CCCNC(=O)C1(c2ccc(NC(=O)c3ccc(F)c(Cl)c3)cc2)CCC1` [Example 78, 3-chloro-4-fluoro-N-{4-[1-(propylcarbamoyI)cyclobutyl]phenyl}benzamide] are at most 5.00 and 8.00.
Consider `CCCNC(=O)C1(c2ccc(NC(=O)c3cc(F)cc(Cl)c3)cc2)CCC1` [Example 79, 3-chloro-5-fluoro-N-{4-[1-(propylcarbamoyl)cyclobutyl]phenyl}benzamide], for which the pIC50 is at most 5.00 against TDO and 7.96 at IDO1 [2].
Turning to `CCCNC(=O)C1(c2ccc(NC(=O)c3cc(Cl)cc(Cl)c3)cc2)CCC1` [Example 80, 3,5-dichloro-N-{4-[1-(propylcarbamoyl)cyclobutyl]phenyl}benzamide], the negative logarithm of the IC50 (pIC50) at TDO is at most 5.00; at IDO1 [2], 7.92.
In the case of `CCCNC(=O)C1(c2ccc(NC(=O)c3ccc(Cl)c(Cl)c3)cc2)CCC1` [Example 81, 3,4-dichloro-N-{4-[1-(propylcarbamoyl)cyclobutyl]phenyl}benzamide], the pIC50 at TDO was at most 5.00; at IDO1 [2], 7.89.
On the same counts, the results for `O=C(Nc1ccc(C2(C(=O)NCCC(F)(F)F)CCC2)cc1F)c1cccc(Cl)c1` [Example 82, 3-Chloro-N-(2-fluoro-4-(1-((3,3,3-trifluoropropyl)carbamoyl)cyclobutyl)phenyl)benzamide] are at most 5.00 and 6.93.
`O=C(Nc1ccc(C2(C(=O)NCCC(F)(F)F)CCC2)cc1CO)c1cccc(Cl)c1` [Example 83, 3-Chloro-N-(2-(hydroxymethyl)-4-(1-((3,3,3-trifluoropropyl)carbamoyl)cyclobutyl)phenyl)benzamide]: the values for the pIC50 against TDO and on IDO1 [2] were at most 5.00 and 6.89, respectively.
On the same counts, the results for `CC(C)(C)/N=C/c1cc(C2(C(=O)NCCC(F)(F)F)CCC2)ccc1NC(=O)c1cccc(Cl)c1` [Example 84, N-(2-[(E)-(tert-butylimino)melhyl]-4-{1-[(3,3,3-trifluoropropyl)carbamoyl]cyclobutyl}phenyl)-3-chlorobenzamide] are at most 5.00 and 6.75.
On the same counts, the results for `CCCNC(=O)C1(c2ccc(NC(=O)C3Cc4ccccc43)cc2)CCC1` (stereo not drawn) [Example 87, N-{4-[1-(propylcarbamoyl)cyclobutyl]phenyl}bicyclo[4.2.0]octa-1,3,5-triene-7-carboxamide] are at most 5.00 and 5.98.
